Common to all, as to set-up: species or system SD rats
One experiment concerns the target T1, serotonin S2 receptor (Rattus norvegicus, UniProt P14842).
T1 construct: The receptor fraction prepared from the cortex was molten and suspended; from tissue; host or cells: cerebral cortex of SD rats (membrane fraction)
Put plainly: serotonin S2 receptor binding test ([3H] Ketanserin Binding Test). As to conditions: 1 nM [3H] Ketanserin, rat cortex, 37° C., 15 minutes. The essentials:
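Ki values came from probit IC50s corrected for radioligand concentration and Kd (Scatchard). Binding used 1 nM [3H]ketanserin with SD rat cortex membrane fractions, 15 min at 37 °C in Tris-HCl pH 7.4. Bound radioactivity was measured after GF/B filtration, with methysergide for nonspecific binding.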

Another experiment deals with T2, dopamine D2 receptor (Rattus norvegicus, UniProt P61169).
T2 construct: the receptor fraction prepared from the corpus striatum was molten and suspended; from tissue; host or cells: corpus striatum of SD rats (membrane fraction)
Put plainly: dopamine D2 receptor binding test ([3H] Spiperone Binding Test). As to conditions: 1 nM [3H] Spiperone, rat corpus striatum, room temperature, 60 minutes; read-out: Ki value, dopamine D2 receptor. The method, boiled down:
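Rat (SD, 6–8 weeks) corpus striatum membranes in 50 mM Krebs-Tris pH 7.4 were incubated with 1 nM [3H]spiperone at room temperature for 60 minutes, with nonspecific binding defined by excess spiperone. IC50 came from probit analysis; Ki was derived using radioligand concentration and Scatchard Kd.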

The target of the next experiment is adrenergic α1 receptor. As to the kind of experiment: adrenergic α1 receptor binding test ([3H] Prazosin Binding Test). As to conditions: 1 nM [3H] Prazosin, rat cortex, room temperature, 60 minutes. The essentials: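 Rat (SD, 6-8 weeks) cerebral cortex membranes in 50 mM Tris-HCl pH 7.4 incubated with 1 nM [3H]prazosin for 60 min at room temperature; nonspecific binding defined with phentolamine. IC50 by probit method, converted to Ki using radioligand concentration and Scatchard-derived Kd.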

This is an account of results in US6281214A, “Biphenyl derivatives” (Eisai Co., Ltd, priority 1994, dated 2001).

As a reminder, the Ki is a dissociation constant, usually derived from enzyme kinetics or from competition with a known ligand.

T2 sequence (P61169 whole entry): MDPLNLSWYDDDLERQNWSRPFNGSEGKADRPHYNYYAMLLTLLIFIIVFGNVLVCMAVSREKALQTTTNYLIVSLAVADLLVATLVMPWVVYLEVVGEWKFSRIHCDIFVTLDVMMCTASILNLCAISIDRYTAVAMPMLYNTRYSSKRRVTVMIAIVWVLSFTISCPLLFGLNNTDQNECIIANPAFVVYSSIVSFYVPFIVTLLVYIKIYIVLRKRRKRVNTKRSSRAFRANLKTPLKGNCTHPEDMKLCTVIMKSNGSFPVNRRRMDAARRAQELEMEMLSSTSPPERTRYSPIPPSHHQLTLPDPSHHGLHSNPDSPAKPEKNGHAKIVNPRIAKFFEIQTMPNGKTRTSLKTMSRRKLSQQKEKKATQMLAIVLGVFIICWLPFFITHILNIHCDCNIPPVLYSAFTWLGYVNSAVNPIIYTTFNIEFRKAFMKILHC
T1 sequence (P14842 whole entry): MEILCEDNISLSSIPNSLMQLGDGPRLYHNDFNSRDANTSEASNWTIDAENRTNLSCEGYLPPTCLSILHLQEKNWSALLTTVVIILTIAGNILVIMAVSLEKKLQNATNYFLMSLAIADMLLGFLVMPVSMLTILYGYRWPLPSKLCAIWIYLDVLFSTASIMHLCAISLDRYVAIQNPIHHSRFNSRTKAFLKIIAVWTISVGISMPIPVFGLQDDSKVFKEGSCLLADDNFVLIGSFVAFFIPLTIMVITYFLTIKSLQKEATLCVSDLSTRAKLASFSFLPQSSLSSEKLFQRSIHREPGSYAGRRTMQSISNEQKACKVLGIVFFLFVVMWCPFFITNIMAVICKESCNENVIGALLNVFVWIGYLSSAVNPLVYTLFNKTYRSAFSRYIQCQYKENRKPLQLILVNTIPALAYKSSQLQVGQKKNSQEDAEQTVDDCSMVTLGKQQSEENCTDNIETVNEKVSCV

With `CCN1CCN(c2cc(-c3ccccc3C)c(F)c(S(C)(=O)=O)c2)CC1` [Example 155], the results for the Ki on serotonin S2 receptor, at dopamine D2 receptor and on adrenergic α1 receptor were 180 nM, 41 nM and 845 nM, respectively.

Turning to `CCC(F)c1cc(N2CCN(CC)CC2)cc(-c2ccc(F)cc2Cl)c1Cl` (stereo not drawn) [Example 156], the inhibitory constant (Ki) on serotonin S2 receptor turned out to be 29 nM; at dopamine D2 receptor, 1.39 nM; at adrenergic α1 receptor, 513 nM.

Turning to `CCC(CC)c1cc(N2CCN(CC)CC2)cc(-c2ccccc2C)c1Cl` [Example 157, 1-Ethyl-4-[3-(2-tolyl)-4-chloro-5-(1-ethylpropyl)]phenylpiperazine], the Ki at serotonin S2 receptor is 74.4 nM; at dopamine D2 receptor it was 7.26 nM; on adrenergic α1 receptor it was greater than 1000 nM.

In the case of `CCN1CCN(c2cc(-c3ccccc3C)c(Cl)c(S(C)(=O)=O)c2)CC1` [Example 158, 1-Ethyl-4-[3-(2-tolyl)-4-chloro-5-methanesulfonyl]phenylpiperazine], the Ki was 124 nM at serotonin S2 receptor, 12.4 nM on dopamine D2 receptor and greater than 1000 nM at adrenergic α1 receptor.

In the case of `CCCS(=O)(=O)c1cc(N2CCN(CC)CC2)cc(-c2ccccc2C)c1Cl` [Example 159, 1-Ethyl-4-[3-(2-tolyl)-4-chloro-5-propanesulfonyl]phenylpiperazine], the Ki was 8.81 nM on serotonin S2 receptor, 3.93 nM on dopamine D2 receptor and 596 nM at adrenergic α1 receptor.

For the compound `C=CCCC(F)c1cc(N2CCN(CC)CC2)cc(-c2ccccc2C)c1Cl` (stereo not drawn) [Example 160, 1-Ethyl-4-[3-(2-tolyl)-4-chloro-5-(1-fluoro-4-pentenyl)]phenylpiperazine], the Ki is 14.8 nM at serotonin S2 receptor, 13.6 nM on dopamine D2 receptor and greater than 1000 nM at adrenergic α1 receptor.

On to `CCCNS(=O)(=O)c1cc(N2CCN(CC)CC2)cc(-c2ccccc2C)c1Cl` [Example 161, 1-Ethyl-4-[3-(2-tolyl)-4-chloro-5-propylaminosulfonyl]phenylpiperazine], for which the figures for the Ki at serotonin S2 receptor, at dopamine D2 receptor and on adrenergic α1 receptor were 22.5 nM, 9.8 nM and 776 nM, respectively.

For the compound `CCN1CCN(c2cc(NS(=O)(=O)CC(F)(F)F)c(Cl)c(-c3ccccc3Cl)c2)CC1` [Example 163, 1-Ethyl-4-[3-(2-chlorophenyl)-4-chloro-5-(2,2,2-trifluoroethyl)sulfonylamino]phenylpiperazine], the Ki worked out at 63.6 nM on serotonin S2 receptor, 10.2 nM on dopamine D2 receptor and 195 nM at adrenergic α1 receptor.

With `CCC(F)c1cc(N2CCN(CC)CC2)cc(-c2ccccc2C)c1C#N` (stereo not drawn) [Example 164, 1-Ethyl-4-[3-(2-tolyl)-4-cyano-5-(1-fluoropropyl)]phenylpiperazine], the Ki was 12 nM on serotonin S2 receptor, 1.62 nM at dopamine D2 receptor and greater than 1000 nM on adrenergic α1 receptor.

With `CCN1CCN(c2cc(NS(=O)(=O)CCCCl)c(Cl)c(-c3ccccc3C)c2)CC1` [Example 165], the Ki is 6.1 nM on serotonin S2 receptor, 0.74 nM at dopamine D2 receptor and greater than 1000 nM at adrenergic α1 receptor.

On to `CCN1CCN(c2cc(-c3ccccc3C)c(Cl)c(S(=O)(=O)Nc3ccccc3)c2)CC1` [Example 166, 1-Ethyl-4-[3-(2-tolyl)-4-chloro-5-phenylaminosulfony]phenylpiperazine], for which the Ki on serotonin S2 receptor was 5.42 nM; at dopamine D2 receptor, 1.42 nM; on adrenergic α1 receptor it was greater than 1000 nM.

In the case of `CCN1CCN(c2cc(COCc3ccccc3)c(Cl)c(-c3ccccc3C)c2)CC1` [Example 167, 1-Ethyl-4-[3-(2-tolyl)-4-chloro-5-benzyloxymethyl]phenylpiperazine], the Ki was 23.8 nM at serotonin S2 receptor, 45.4 nM at dopamine D2 receptor and greater than 1000 nM on adrenergic α1 receptor.

For `CCCOCc1cc(N2CCN(CC)CC2)cc(-c2ccccc2C)c1Cl` [Example 168, 1-Ethyl-4-[3-(2-tolyl)-4-chloro-5-propoxymethyl]phenylpiperazine], the Ki on serotonin S2 receptor was 180 nM; at dopamine D2 receptor it was 31.9 nM; at adrenergic α1 receptor, greater than 1000 nM.

In the case of `CCN1CCN(c2cc(COCc3ccncc3)c(Cl)c(-c3ccccc3C)c2)CC1` [Example 169, 1-Ethyl-4-[3-(2-tolyl)-4-chloro-5-(4-pyridyl)methoxymethyl]phenylpiperazine], the Ki on serotonin S2 receptor was 108 nM; at dopamine D2 receptor, 41.8 nM; on adrenergic α1 receptor it was greater than 1000 nM.

For `CCCS(=O)(=O)c1cc(N2CCN(CC)CC2)cc(-c2ccccc2)c1OC` [Example 170, 1-Ethyl-4-(3-phenyl-4-methoxy-5-propanesulfonyl)phenylpiperazine], the values for the Ki at serotonin S2 receptor, on dopamine D2 receptor and on adrenergic α1 receptor were 2.77 nM, 34.2 nM and greater than 1000 nM, respectively.

Consider `CCCCS(=O)(=O)c1cc(N2CCN(CC)CC2)cc(-c2ccccc2)c1OC` [Example 171, 1-Ethyl-4-(3-phenyl-4-methoxy-5-butanesulfonyl)phenylpiperazine], for which the Ki on serotonin S2 receptor is 2.74 nM; on dopamine D2 receptor, 86.7 nM; at adrenergic α1 receptor, greater than 1000 nM.

For the compound `CCN1CCN(c2cc(-c3ccccc3)c(OC)c(S(=O)(=O)CCF)c2)CC1` [Example 172, 1-Ethyl-4-[3-phenyl-4-methoxy-5-(2-fluoroethane)sulfonyl]phenylpiperazine], the Ki on serotonin S2 receptor is 30.3 nM; on dopamine D2 receptor, 48.9 nM; at adrenergic α1 receptor, greater than 1000 nM.

In the case of `CCOCc1cc(N2CCN(CC)CC2)cc(-c2ccccc2C)c1Cl` [Example 173, 1-Ethyl-4-[3-(2-tolyl)-4-chloro-5-ethoxymethyl]phenylpiperazine], the Ki is greater than 1000 nM on serotonin S2 receptor, 19.2 nM on dopamine D2 receptor and greater than 1000 nM on adrenergic α1 receptor.

In the case of `CCCC(O)c1cc(N2CCN(C)CC2)cc(-c2ccccc2C)c1Cl` (stereo not drawn) [Example 174], the results for the Ki at serotonin S2 receptor, at dopamine D2 receptor and at adrenergic α1 receptor were 48.7 nM, 31.8 nM and greater than 1000 nM, respectively.

On to `C=CCOCc1cc(N2CCN(CC)CC2)cc(-c2ccccc2C)c1Cl` [Example 175, 1-Ethyl-4-[3-(2-tolyl)-4-chloro-5-allyloxymethyl]phenylpiperazine], for which the figures for the Ki on serotonin S2 receptor, on dopamine D2 receptor and at adrenergic α1 receptor were greater than 100 nM, 29.3 nM and greater than 1000 nM, respectively.

On to `CCN1CCN(c2cc(COCC3CC3)c(Cl)c(-c3ccccc3C)c2)CC1` [Example 176, 1-Ethyl-4-[3-(2-tolyl)-4-chloro-5-cyclopropylmethoxymethyl]phenylpiperazine], for which the figures for the Ki on serotonin S2 receptor, at dopamine D2 receptor and on adrenergic α1 receptor were 178 nM, greater than 100 nM and greater than 1000 nM, respectively.

Take `CCN1CCN(c2cc(-c3ccccc3C)c(Cl)c(N3CCCC3)c2)CC1` [Example 177]: the Ki at serotonin S2 receptor was greater than 100 nM; at dopamine D2 receptor it was greater than 100 nM; on adrenergic α1 receptor, greater than 1000 nM.

In the case of `CCCC(F)c1cc(N2CCN(C)CC2)cc(-c2ccccc2Cl)c1Cl` (stereo not drawn) [Example 178, 1-Methyl-4-[3-(2-chlorophenyl)-4-chloro-5-(1-fluorobutyl)]phenylpiperazine], the Ki on serotonin S2 receptor was 12.2 nM; on dopamine D2 receptor, 7.3 nM; on adrenergic α1 receptor, greater than 1000 nM.

Regarding `CN1CCN(c2cc(NS(=O)(=O)Cc3ccccc3)c(Cl)c(-c3ccccc3Cl)c2)CC1` [Example 179, 1-Methyl-4-[3-(2-chlorophenyl)-4-chloro-5-benzylsulfonylamino]phenylpiperazine], the Ki came out at 6.54 nM on serotonin S2 receptor, 6.08 nM at dopamine D2 receptor and 72.7 nM on adrenergic α1 receptor.

Take `CCCS(=O)(=O)c1cc(N2CCN(C)CC2)cc(-c2ccccc2Cl)c1Cl` [Example 180, 1-Methyl-4-[3-(2-chlorophenyl)-4-chloro-5-propanesulfonyl]phenylpiperazine]: the Ki on serotonin S2 receptor was 3.48 nM; at dopamine D2 receptor, 13 nM; at adrenergic α1 receptor, greater than 100 nM.

As for `CCN1CCN(c2cc(-c3ccccc3)c(OC)c(S(=O)(=O)CCCOc3ccc(F)cc3)c2)CC1` [Example 181, 1-Ethyl-4-{3-phenyl-4-methoxy-5-[3-(4-fluorophenoxy)propane]sulfonyl}phenylpiperazine], the Ki is 0.5 nM on serotonin S2 receptor, 26.2 nM at dopamine D2 receptor and greater than 100 nM on adrenergic α1 receptor.

Consider `CC(C)S(=O)(=O)Nc1cc(N2CCN(C)CC2)cc(-c2ccccc2Cl)c1Cl` [Example 182, 1-Methyl-4-(3-(2-chlorophenyl)-4-chloro-5-isopropylsulfonylamino]phenylpiperazine], for which the Ki amounted to 145 nM on serotonin S2 receptor, 2.34 nM at dopamine D2 receptor and 186 nM on adrenergic α1 receptor.

For `CCN1CCN(c2cc(-c3ccccc3)c(OC)c(S(=O)(=O)CCC#N)c2)CC1` [Example 183, 1-Ethyl-4-[3-phenyl-4-methoxy-5-(2-cycanoethylsulfonyl)]phenylpiperazine], the Ki on serotonin S2 receptor was 81.2 nM; at dopamine D2 receptor, 165 nM; at adrenergic α1 receptor it was greater than 1000 nM.

As for `CCCS(=O)(=O)Nc1cc(N2CCN(CC)CC2)cc(-c2ccccc2)c1Cl` [Example 184, 1-Ethyl-4-(3-phenyl-4-chloro-5-propanesulfonylamino)phenylpiperazine], the inhibitory constant (Ki) at serotonin S2 receptor was determined as 2.09 nM; at dopamine D2 receptor it was 0.17 nM; on adrenergic α1 receptor, 4.52 nM.

Regarding `CCN1CCN(c2cc(-c3ccccc3C)c(Cl)c(C(F)F)c2)CC1` [Example 185, 1-Ethyl-4-[3-(2-tolyl)-4-chloro-5-difluoromethyl]phenylpiperazine], the values for the Ki on serotonin S2 receptor, at dopamine D2 receptor and on adrenergic α1 receptor were greater than 100 nM, 0.58 nM and greater than 1000 nM, respectively.

`CCN1CCN(c2cc(-c3ccccc3)c(OC)c(C(F)(F)CC)c2)CC1` [Example 186, 1-Ethyl-4-[3-phenyl-4-methoxy-5-(1,1-difluoropropyl)]phenylpiperazine]: the figures for the Ki on serotonin S2 receptor, at dopamine D2 receptor and on adrenergic α1 receptor were 4.29 nM, 2.96 nM and greater than 1000 nM, respectively.
